This test deals with T1, protein kinase D2 (PKD2) (Homo sapiens, UniProt Q9BZL6).
T1 sequence (Q9BZL6 1-878): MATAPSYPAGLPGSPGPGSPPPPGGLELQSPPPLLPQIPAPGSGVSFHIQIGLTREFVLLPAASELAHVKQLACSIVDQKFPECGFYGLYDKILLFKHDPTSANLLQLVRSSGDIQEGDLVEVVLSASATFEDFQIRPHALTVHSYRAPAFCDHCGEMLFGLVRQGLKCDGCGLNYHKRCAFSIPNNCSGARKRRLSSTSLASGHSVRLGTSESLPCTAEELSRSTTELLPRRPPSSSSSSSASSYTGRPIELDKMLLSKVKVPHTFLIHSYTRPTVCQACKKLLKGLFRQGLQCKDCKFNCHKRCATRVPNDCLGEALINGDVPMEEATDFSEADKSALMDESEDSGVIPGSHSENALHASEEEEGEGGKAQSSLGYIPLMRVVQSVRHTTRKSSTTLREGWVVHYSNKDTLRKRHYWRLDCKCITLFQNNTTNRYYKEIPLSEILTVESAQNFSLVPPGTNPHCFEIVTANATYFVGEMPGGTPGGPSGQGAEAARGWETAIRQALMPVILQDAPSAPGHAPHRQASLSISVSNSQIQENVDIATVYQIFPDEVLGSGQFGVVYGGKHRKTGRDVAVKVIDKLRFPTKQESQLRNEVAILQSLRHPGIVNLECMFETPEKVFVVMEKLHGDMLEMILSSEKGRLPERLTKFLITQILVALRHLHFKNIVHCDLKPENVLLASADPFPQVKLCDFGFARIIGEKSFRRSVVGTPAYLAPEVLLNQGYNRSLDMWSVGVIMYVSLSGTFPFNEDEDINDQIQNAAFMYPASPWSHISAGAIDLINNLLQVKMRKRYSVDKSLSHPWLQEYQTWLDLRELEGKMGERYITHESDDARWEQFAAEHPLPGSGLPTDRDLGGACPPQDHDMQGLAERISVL
Briefly: IMAP fluorescence polarization kinase assay, peptide substrate phosphorylation. Format: biochemical. For orientation: In fluorescence polarisation assays a small probe gives low polarisation when free and higher when bound to something large.

One may read the IC50 as the concentration at which inhibition is half-maximal. Read a high IC50 as weaker potency. Compound `CC[C@@H](N)CNc1ccnc(-c2cc(-c3cnn(C)c3)ccc2O)n1` [CRT0066101] came in with an IC50 of 2.5 nM.

(Values after PMC2905628 (Molecular cancer therapeutics, 2010).)
